Marks after values point to notes of the source that are not given here.
Columns and labels:
human TGR5 = target: T1, human TGR5 (Homo sapiens, UniProt Q8TDU6); assay: Cell-based TGR5 assay (cAMP generation, HTRF); details: HEK293 cells stably transfected with human TGR5; cAMP by HTRF; 30 minutes at 37° C.; read-out: pEC50 Human TGR5 (converted)
T1 construct: expressed in transfected cells; host or cells: HEK293
T1 sequence (Q8TDU6 1-330): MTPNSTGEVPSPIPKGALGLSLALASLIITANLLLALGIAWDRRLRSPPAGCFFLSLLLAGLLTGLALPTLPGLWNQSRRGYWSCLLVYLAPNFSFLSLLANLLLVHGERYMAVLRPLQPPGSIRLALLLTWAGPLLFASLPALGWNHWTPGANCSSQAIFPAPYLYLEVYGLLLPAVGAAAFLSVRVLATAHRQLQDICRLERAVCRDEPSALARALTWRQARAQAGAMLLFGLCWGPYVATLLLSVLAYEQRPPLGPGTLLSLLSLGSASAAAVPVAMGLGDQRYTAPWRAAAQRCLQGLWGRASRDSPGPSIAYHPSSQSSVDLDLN
Method in brief: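 Read-out was HTRF detection of cAMP, converted to concentration via a standard curve and fitted (3-parameter logistic) for pEC50 and maximal response. Agonist stimulation used HEK293 cells stably transfected with human TGR5, incubated 30 min at 37° C in IBMX-containing buffer at 0.05 nM to 10 μM compound.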

[1] = test system: mice with 5-FU-induced diarrhea; assay: Chemotherapy-induced diarrhea model (5-FU), fecal form score; assay type: in vivo, CD-1 female mice; details: 5-FU 60 mg/kg IP days 5-11; I-388 30 mg/kg PO BID, teduglutide 0.4 mg/kg SQ BID, days 1-13; FFS days 11-13 summed; FIG. 1
Experimental: Four groups of adult CD-1 female mice on regular chow were dosed with the following BID starting on Day 1: 2 groups, vehicle (10% hydroxypropyl-β-cyclodextrin in PBS; PO; 5 mL/kg); 1 group, Compound I-388 at 30 mg/kg in vehicle (PO; 5 mL/kg); and 1 group, teduglutide 0.4 mg/kg (American Peptide, Sunnyvale, CA; reconstituted in PBS; SQ; 10 mL/kg) 0.4 mg/kg SQ. On Days 5-11, the groups of mice were also given QD IP injections (5 mL/kg) of the following treatments: first vehicle group, PBS and remaining groups, 5-fluorouracil (5-FU) 60 mg/kg (Fresenius Kabi USA, Lake Zurich, IL) diluted in PBS to induce mucositis with diarrhea. Body weight was measured throughout the study and fecal form was scored on Day 11-13 of the study according to the following scale: 0, normal stool; 1, slightly wet and soft stool; 2, wet and unformed stool with moderate perianal staining of the coat; 3, watery stool with severe perianal staining of the coat.
All mice were dosed on day 1-13 with vehicle, with 0.4 mg/kg of teduglutide, or with 30 mg/kg of compound I-388 (vehicle and Cmpd. I-388: PO, […] and teduglutide: SQ, 10 mL/kg). PBS or 5-FU at 60 mg/kg (used to induce mucositis and diarrhea) were administered interperionally (IP; 5 mL/kg) on days 5-11.

[2] = test system: mice with DSS-induced colitis; assay: Inflammatory bowel disease model (DSS colitis): DAI, colon length, cytokines, histology; assay type: in vivo, C57BL/6 female mice; details: I-389 30 mg/kg PO BID
Experimental: Six week old C57BL/6 female, were acclimated for 2 days. Starting on Day −2, 5 groups of mice were dosed PO (mL/kg) BID with 1) vehicle (10% HPCD); 2) vehicle; 3) vehicle; mice had sitagliptin (3.6 g/L for a dose of ˜800 mg/kg/day) added to their drinking water; 4) I-389 30 mg/kg; or 5) I-389 30 mg/kg; mice had sitagliptin (3.6 g/L for a dose of 800 mg/kg/day) added to their drinking water. On Day 0, mice in groups 2-5 were put on drinking water containing 1.5% DSS to induce colitis. Note: Groups 3 & 5 were on drinking water containing both DSS and sitagliptin. On Day 7, mice were taken off of DSS treatment and received either regular drinking water (Groups 1, 2, and 4) or drinking water with sitagliptin (Groups 3 and 5). On Day 8, mice were transferred to a separate container for DAI scoring which consists of evaluation of stool consistency, blood in stool, incidence of rectal prolapse, and body condition according to the scoring system shown in Table 19. The DAI score is a summation of each individual score in each category (columns) for a single animal. Mice were euthanized, blood was collected for plasma, colons were removed for length measurement, cytokine analysis, and histological staining, pathological analysis and scoring of colonic tissue damage. Colonic tissue damage was scored according to observed microscopic changes based on the following schema: 0=no significant change, 1=minimal, 2=mild, 3=moderate and 4=severe. Parametric data for each group are presented as mean±SEM. Statistical analysis was performed using one-way ANOVA followed by Holm-Sidak's multiple comparisons test. Statistical significance versus DSS/vehicle is marked as *, P<0.05; **, P<0.01, ***, P<0.001, and ****, P<0.0001. Statistical significance versus DSS/I-389 is marked as †††, P<0.001. Non-parametric data for each group is shown as a dot blot with median (line). Statistical analysis was performed using Kruskal-Wallis test followed by Dunn's test to detect differences between groups.

[3] = test system: Western diet (WD)-fed mice; assay: Mouse model of NAFLD and mild diabetes, Western diet (WD)-fed mice: glucose, insulin, liver lipids, GLP levels; assay type: in vivo, C57BL/6 male mice; details: Western diet, liraglutide 0.4 mg/kg BID SQ, I-389 30 mg/kg BID PO, linagliptin 10 mg/kg QD PO, mean±SEM
Experimental: Seven week old C57BL/6 male mice were housed 5/cage. Two cages of mice were put on normal chow (Harlan Teklad 2018), and the remaining cages of mice were put on WD (Harlan Teklad, TD.88137, […]/0.2% cholesterol) to induce NAFLD. After 10 weeks, mice were weighed and fasted for 4 h. Blood was collected to measure fasting glucose levels, processed to plasma for measurement of insulin, triglycerides and total cholesterol. This process was repeated on Day 29 of treatment. Based on body weight and fasted glucose and insulin levels, mice were divided into 5 treatment groups (n=10/group), Table 20. […] Mice were weighed twice weekly throughout the study. On the last day of the study (Day 30, 8 hours after food removal), mice were euthanized. Blood was collected in tubes with inhibitors to block DPP-4 activity and processed to plasma for measurement of liver enzymes and GLP levels using an Ace Alera clinical analyzer and the Multi-Array Assay System from Meso Scale Discovery, respectively. The entire liver was collected, weighed, and a sample was taken and weighed for measurement of triglycerides and total cholesterol.
Data for each group are presented as mean±SEM. Statistical analyses were performed using one-way ANOVA followed by Holm-Sidak's multiple comparisons test. For GLP levels, <statistical significance compared to vehicle (WD) is marked as *, P<0.05; **, P<0.01, ***, P<0.001, and ****, P<0.0001; of linagliptin (WD) versus I-389 alone (WD) or linaglptin+I-389 (WD) is marked as †, P<0.05; ††, P<0.01, of †††, P<0.001, and ††††, P<0.0001; and of I-389 (WD) versus linagliptin (WD)+I-389 (WD) is marked as ^, P<0.05; ^ ^P<0.01, ^ ^^P, P<0.001, and ^ ^^^, P<0.0001. For the remaining parameters, statistical significance compared to vehicle (WD) is marked as *, P<0.05; **, P<0.01, ***, P<0.001, and ****, P<0.0001.

O=C(NCCCCNS(=O)(=O)c1ccc(Cl)c(COC2(c3cnccc3-c3ccccc3OC3CC3)CC2)c1)[C@@H](O)[C@@H](O)[C@H](O)[C@@H](O)CO [Compound I-388, (2S,3S,4R,5S)-N-(4-[[4-chloro-3-([1-[4-(2-cyclopropoxyphenyl)pyridin-3-yl]cyclopropoxy]methyl)benzene]sulfonamido]butyl)-2,3,4,5,6-pentahydroxyhexanamide]
EC50 (human TGR5): < 100 nM | cumulative fecal form score (FFS) [1]: significantly improved

N[C@@H](CC(=O)N1CCn2c(nnc2C(F)(F)F)C1)Cc1cc(F)c(F)cc1F [sitagliptin]
DSS-induced colonic damage ([2]; 1.5% DSS in drinking water, sitagliptin 3.6 g/L in drinking water (~800 mg/kg/day)): partially abrogated | disease activity score (DAI) ([2]; Day 8, 1.5% DSS, sitagliptin ~800 mg/kg/day in drinking water, vehicle/DSS 5.6, FIG. 2): 3.0 | colon length ([2]; Day 8, 1.5% DSS, sitagliptin ~800 mg/kg/day, mean±SEM, vehicle/DSS 4.7±0.1, FIG. 3): 5.6±0.2 cm

CC#CCn1c(N2CCC[C@@H](N)C2)nc2c1c(=O)n(Cc1nc(C)c3ccccc3n1)c(=O)n2C [Linagliptin, linagliptin, reference compound]
Liver weight ([3]; vehicle WD 2.13 ± 0.14): 1.77 ± 0.11* g | 4-h fasted insulin ([3]; vehicle WD 2.3 ± 0.3): 1.4 ± 0.2** ng/mL | Hepatic cholesterol ([3]; vehicle WD 8.56 ± 0.25): 10.17 ± 0.21*** mg/g | Hepatic triglycerides ([3]; vehicle WD 145.40 ± 14.80): 117.90 ± 6.76 mg/g | 4-h fasted glucose ([3]; vehicle WD 239 ± 13): 185 ± 6** mg/dL

O=C(CCCCc1cc(Cl)c(COC2(c3cnccc3-c3ccccc3OC3CC3)CC2)cc1Cl)NC[C@H](O)[C@@H](O)[C@H](O)[C@H](O)CO [Compound I-135, 5-[2,5-dichloro-4-({1-[4-(2-cyclopropoxyphenyl)pyridin-3-yl]cyclopropoxy}methyl)phenyl]-N-[(2S,3R,4R,5R)-2,3,4,5,6-pentahydroxyhexyl]pentanamide]
EC50 (human TGR5): < 100 nM

CS(=O)(=O)CCN(C[C@H](O)[C@@H](O)[C@H](O)[C@H](O)CO)C(=O)CCCSc1ccc(Cl)c(COC2(c3cnccc3-c3ccccc3OC3CC3)CC2)c1 [Compound I-665, 4-{[4-chloro-3-({1-[4-(2-cyclopropoxyphenyl)pyridin-3-yl]cyclopropoxy}methyl)phenyl]sulfanyl}-N-(2-methanesulfonylethyl)-N-[(2S,3R,4R,5R)-2,3,4,5,6-pentahydroxyhexyl]butanamide]
EC50 (human TGR5): 126 to 1000 nM

O=C(NCCCCCc1cc(Cl)c(COC2(c3cnccc3-c3ccccc3OC3CC3)CC2)cc1Cl)NC[C@H](O)[C@@H](O)[C@H](O)[C@H](O)CO (stereo in doubt) [Compound I-225, 1-{5-[2,5-dichloro-4-({1-[4-(2-cyclopropoxyphenyl)pyridin-3-yl]cyclopropoxy}methyl)phenyl]pentyl}-3-[(2S,3R,4R,5R)-2,3,4,5,6-pentahydroxyhexyl]urea]
EC50 (human TGR5): < 100 nM

CC(C)C(=O)N(CCCCc1cc(Cl)c(COC2(c3cnccc3-c3ccccc3OC3CC3)CC2)cc1Cl)C[C@H](O)[C@@H](O)[C@H](O)[C@H](O)CO [Compound I-69, N-{4-[2,5-dichloro-4-({1-[4-(2-cyclopropoxyphenyl)pyridin-3-yl]cyclopropoxy}methyl)phenyl]butyl}-2-methyl-N-[(2S,3R,4R,5R)-2,3,4,5,6-pentahydroxyhexyl]propanamide]
EC50 (human TGR5): 126 to 1000 nM

CN(CC(=O)O)C[C@H](NC(=O)CCCCc1cc(Cl)c(COC2(c3cnccc3-c3ccccc3OC3CC3)CC2)cc1Cl)[C@@H](O)[C@H](O)[C@H](O)CO (stereo in doubt) [Compound I-164, 2-{[(2S,3R,4S,5R)-2-{5-[2,5-dichloro-4-({1-[4-(2-cyclopropoxyphenyl)pyridin-3-yl]cyclopropoxy}methyl)phenyl]pentanamido}-3,4,5,6-tetrahydroxyhexyl](methyl)amino}acetic acid]
EC50 (human TGR5): < 100 nM

CN(C)C(=O)CCN(C[C@H](O)[C@@H](O)[C@H](O)[C@H](O)CO)C(=O)CCCCc1cc(Cl)c(COC2(c3cnccc3-c3ccccc3OC3CC3)CC2)cc1Cl [Compound I-222, 5-[2,5-dichloro-4-({1-[4-(2-cyclopropoxyphenyl)pyridin-3-yl]cyclopropoxy}methyl)phenyl]-N-[2-(dimethylcarbamoyl)ethyl]-N-[(2S,3R,4R,5R)-2,3,4,5,6-pentahydroxyhexyl]pentanamide]
EC50 (human TGR5): < 100 nM

— patent publication US12084472B2 (Ardelyx, Inc., priority 2015, dated 2024)
